Measured values as given in patent US11014898B1, “Benzothiazepine compounds and their use as bile acid modulators” (Albireo AB, priority 2020, dated 2021).

Biological target: T1, Human IBAT (Homo sapiens, UniProt Q12908)
T1 construct: expressed in transfected cells; cells kept under Puromycin selection
T1 sequence (Q12908 1-348): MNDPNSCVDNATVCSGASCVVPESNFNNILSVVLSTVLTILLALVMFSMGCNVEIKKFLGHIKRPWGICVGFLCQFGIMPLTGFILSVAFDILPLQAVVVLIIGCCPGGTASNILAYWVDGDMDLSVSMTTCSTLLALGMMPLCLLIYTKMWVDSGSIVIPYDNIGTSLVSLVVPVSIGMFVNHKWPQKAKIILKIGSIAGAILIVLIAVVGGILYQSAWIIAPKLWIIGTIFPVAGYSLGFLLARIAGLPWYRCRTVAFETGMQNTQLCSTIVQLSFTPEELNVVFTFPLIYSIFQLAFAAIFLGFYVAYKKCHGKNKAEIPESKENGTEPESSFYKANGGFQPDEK
Assay: IBAT (h) assay: 3H-taurocholic acid uptake in human IBAT-overexpressing cells
Format: cell-based
Settings: 0.25 μM 3H-taurocholic acid and 5 μM cold taurocholic acid, 20 minutes, read-out: hIBAT IC50
Method: 10,000 cells (Human or Mouse IBAT-overexpressing cells) were seeded in 96-wells plate (Corning CLS3809) in 200 μL MEM-alpha medium (Gibco 12571-063) supplemented with 10% FBS (Gibco 10438026) containing Puromycin (Gibco A1113803) (10 μg/mL) and incubated at 37° C. in 5% CO2 for 48 hours. After incubation, media was decanted from the wells and cells were washed two times with 300 μL of basal MEM-alpha medium (FBS-free). After decanting basal MEM-alpha medium each time, plates were tapped against paper towel to ensure maximum removal of residual media. Test inhibitor dilutions (highest test concentration being 10 μM, 3-fold serial dilution, 10 points) prepared in DMSO (Sigma D2650) were added in incubation mix (maintaining 0.2% final DMSO concentration) containing 0.25 μM 3H-taurocholic acid (ARC ART-1368) and 5 μM of cold taurocholic acid (Sigma T4009). 50 μL of incubation mix containing test inhibitors was then added to the wells (in duplicate) and the plates were incubated for 20 minutes in a CO2 incubator at 37° C. After incubation, the reaction was stopped by keeping the plates on ice water mix for 2-3 minutes and then the incubation mix was aspirated completely from the wells. The wells were washed two times with 250 μL of chilled unlabelled 1 mM taurocholic acid dissolved in HEPES (Gibco 15630080)-buffered (10 mM) HBSS (Gibco 14175079) (pH 7.4). The plates were tapped against a paper towel after every wash to ensure maximum removal of blocking buffer.
100 μL of MicroScint-20 (PerkinElmer 6013621) was added to the wells and kept overnight at room temperature before reading the plates in TopCount NXT™ Microplate Scintillation and Luminescence Counter from PerkinElmer under 3H Test protocol (set at 120 seconds reading time per well).
All test compounds were provided in powder form at room temperature. 10 mM DMSO stocks of the test compounds were prepared, aliquoted and stored at −20° C. From the 10 mM DMSO stock of the compounds, a 3-fold serial dilution in DMSO was prepared to get a total of 10 dilutions of the test compounds. 0.5 μL of this dilution in DMSO was added to 250 μL of FBS-free basal media containing 3H-taurocholic acid and cold taurocholic acid to prepare the incubation mixture.

Structure (SMILES)	IC50 [nM]
CCCCC1(CC)CN(c2ccccc2)c2cc(N(C)C)c(OCC(=O)O)cc2S(=O)(=O)C1 (single isomer, unassigned) [Example 9, 2-((3-butyl-7-(dimethylamino)-3-ethyl-1,1-dioxido-5-phenyl-2,3,4,5-tetrahydro-1,5-benzothiazepin-8-yl)oxy)acetic Acid]	217
CCCCC1(CC)CN(c2ccc(F)cc2)c2cc(SC)c(OCC(=O)O)cc2S(=O)(=O)C1 (single isomer, unassigned) [Example 16, 2-((3-butyl-3-ethyl-5-(4-fluorophenyl)-7-(methylthio)-1,1-dioxido-2,3,4,5-tetrahydro-1,5-benzothiazepin-8-yl)oxy)acetic acid]	64
CCCCC1(CC)CN(c2ccc(O)cc2)c2cc(SC)c(OCC(=O)O)cc2S(=O)(=O)C1 (single isomer, unassigned) [Example 19, 2-((3-butyl-3-ethyl-5-(4-hydroxyphenyl)-7-(methylthio)-1,1-dioxido-2,3,4,5-tetrahydro-1,5-benzothiazepin-8-yl)oxy)acetic Acid]	705

The next molecules have a lower IC50 than those just listed; values first:

IC50 [nM]	Structure (SMILES)
19	CCCCC1(CC)CN(c2ccc(O)cc2)c2cc(SC)c(OCC(=O)O)cc2S(=O)(=O)C1 (racemic) [Example 17, 2-((3-butyl-3-ethyl-5-(4-hydroxyphenyl)-7-(methylthio)-1,1-dioxido-2,3,4,5-tetrahydro-1,5-benzothiazepin-8-yl)oxy)acetic Acid]
17	CCCCC1(CC)CN(c2ccc(OC)cc2)c2cc(SC)c(OCC(=O)O)cc2S(=O)(=O)C1 (stereo not shown) [Example 18, 2-((3-butyl-3-ethyl-5-(4-methoxyphenyl)-7-(methylthio)-1,1-dioxido-2,3,4,5-tetrahydro-1,5-benzothiazepin-8-yl)oxy)acetic Acid]
14	CCCCC1(CC)CN(c2ccccc2)c2cc(N(C)C)c(OCC(=O)O)cc2S(=O)(=O)C1 (racemic) [Example 7, 2-((3-butyl-7-(dimethylamino)-3-ethyl-1,1-dioxido-5-phenyl-2,3,4,5-tetrahydro-1,5-benzothiazepin-8-yl)oxy)acetic Acid]
6.4	CCCCC1(CC)CN(c2ccc(F)cc2)c2cc(SC)c(OCC(=O)O)cc2S(=O)(=O)C1 (racemic) [Example 14, 2-((3-butyl-3-ethyl-5-(4-fluorophenyl)-7-(methylthio)-1,1-dioxido-2,3,4,5-tetrahydro-1,5-benzothiazepin-8-yl)oxy)acetic Acid]
